In general, EC50 refers to the concentration giving half of the maximal effect.

The target in assay [1] is T1, full-length recombinant MrkA protein (Klebsiella pneumoniae, UniProt P12267).
T1 construct: purchased MyBiosource MBS1248970
The experiment in a line: Sandwich ELISA of PCC binding to full-length MrkA. The conditions noted are these: sandwich ELISA, biotinylated PCC immobilized. The method, then: The screen yielded 26 hits (Table 2) that were sequenced, scaled up, and tested for binding to full-length recombinant MrkA in solution by single-point sandwich Enzyme-linked immunoassays (ELISAs) (FIG. 8). HPraGly is present before X1 in each peptide and Az4 follows X5 in each peptide.
An alanine scan was performed to establish which residues of cy(LLFFF) (SEQ ID NO:5) contribute most to MrkA binding. In this assay, a sandwich ELISA is used to quantify the affinity of several cy(LLFFF) (SEQ ID NO:5) analogues, in which one residue is substituted with an alanine, towards full-length MrkA protein. The ELISA results in FIG. 4 show lower signal for every alanine-substituted cy(LLFFF) (SEQ ID NO:5) analogue compared to unmodified cy(LLFFF) (SEQ ID NO:5), establishing that the native compound has the highest affinity. […] Thus, these two C-terminal phenylalanine residues (FIG. 3A, arrows in inset) play critical roles in MrkA binding, and are targets for modifications to improve binding. Another important detail of these alanine scan results is a strong dependence of MrkA binding on the residue position, independent of residue type. For example, cy(LLAFF) (SEQ ID NO:9) and cy(LLFFA) (SEQ ID NO:11) have very different binding affinities, despite having the same phenylalanine-to-alanine substitution.
In vitro ELISA assays. ELISA assays for MrkA-binding and epitope selectivity were performed on clear NeutrAvidin Coated High Capacity Plates (ThermoFisher, 15507). The buffer used for all washes and to dissolve all compounds was TBST+0.1% BSA (TBS+0.05% Tween 20+0.1% BSA, pH 7.3) and, unless otherwise stated, steps were conducted at room temperature. Each wash involved a brief 20 s agitation, and all conjugation, blocking, and incubation steps were performed with gentle agitation over the entire stated time period. The general procedure for an ELISA assay was: wash 3×200 μL/well, conjugate with 2 μM of biotinylated compound for 2 h at room temperature (100 μL/well), wash 3×200 μL/well, blocked overnight in 5 wt % milk at 4° C., wash […] with wash buffer, incubate with titrated compound (e.g., MrkA or epitope) for 1 h, […], incubate with primary antibody […] for 1 h (100 μL/well), wash 3×200 μL/well, incubate with 1:2,000 anti-rabbit secondary antibody-horseradish peroxidase conjugate (Cell signaling Technologies, 7074S) for 1 h, 3×200 μL/well, develop with the Microwell Peroxidase Substrate System (2-C) (SeraCare, 5120-0047) using 100 μL/well for 1-40 minutes, and quench using 1 M H2SO4 (aq.) at 100 μL/well. For MrkA binding assays, biotinylated PCCs were conjugated to the well surface, recombinant MrkA with an N-terminal 6×His-SUMO-tag (MyBiosource, MBS1248970) was titrated at the desired concentration, and the primary antibody was His-tag antibody, pAb, Rabbit (Genscript, A00174) at a 1:5,000 dilution. For epitope selectivity assays, biotinylated SynEps were conjugated, DNP-conjugated AR-PCCs were titrated at a desired concentration, and the primary antibody was anti-DNP antibody produced in Rabbit (Sigma-Aldrich, D9656) at a 1:8,000 dilution. […] For binding tests in the context of mouse sera, the “titrated compound” described in the steps above was dispersed in a solution containing the desired concentration of mouse serum.
A general note: In an ELISA, binding on a coated surface is turned into a signal by an enzyme label.

The subject of assay [2] is MrkA-expressing K. pneumoniae cells. As to the kind of experiment: Whole-cell ELISA of biotinylated PCC binding.
Assay [3] relates to Escherichia coli (E. coli) cells. The experiment in a line: Whole-cell ELISA of biotinylated PCC binding. The conditions noted are these: biotinylated PCC at 5 μM.
Protocol: (§1) Whole-cell ELISAs. Detection of the binding of biotinylated PCCs to bacterial surface was performed as follows. 108 bacteria from a culture grown overnight were used for each test. Bacteria were incubated with PBS containing 1% BSA (PBS-BSA) for 1 h at 37° C., washed once with PBS, and then incubated with 5 μM of the biotinylated PCC in PBS-BSA for 1 h at 37° C. After washing thrice with PBS to remove unbound PCCs, bacteria were incubated with Streptavidin-HRP (1:1000) for 1 h at 37° C. Bacteria were washed thoroughly and the TMB reagent was added until visible coloration was observed. The reaction was quenched using 2N H2SO4 and absorbance was measured at 450 nm.
Assay [4] relates to MrkA synthetic epitopes (SynEp 1-4). The experiment in a line: Epitope selectivity sandwich ELISA with immobilized SynEps. The conditions noted are these: DNP-conjugated ligand at 500 nM, anti-DNP detection. The assay is classed as binding, Klebsiella pneumoniae. As to the method: The particular epitope target to which cy(LLFFF) (SEQ ID NO:5) binds was next identified. A sandwich ELISA was performed in which the biotinylated SynEps were immobilized. The lead ligand cy(LLFFF) (SEQ ID NO:5), conjugated to a 2,4-dinitrophenyl (DNP) moiety, was titrated at a 500 nM concentration, and anti-DNP was used as a detection antibody. […] A background level for this assay was established using a biotinylated 6-mer polyethylene glycol (biotin-PEG6). […] As the native epitope for SynEp1 has a GRAVY score of 1.01, while the native versions of other SynEps range between −0.9 and −0.28, the negative ELISA signals may arise from the relatively high hydrophobicity of SynEp 1 versus others. The blocking may also result from the reactivity of the cysteine residue in SynEp 1. […] (SEQ ID NO:2) in native MrkA.
In vitro ELISA assays. ELISA assays for MrkA-binding and epitope selectivity were performed on clear NeutrAvidin Coated High Capacity Plates (ThermoFisher, 15507). The buffer used for all washes and to dissolve all compounds was TBST+0.1% BSA (TBS+0.05% Tween 20+0.1% BSA, pH 7.3) and, unless otherwise stated, steps were conducted at room temperature. Each wash involved a brief 20 s agitation, and all conjugation, blocking, and incubation steps were performed with gentle agitation over the entire stated time period. […]

Assay [5] concerns Salmonella typhimurium (S. typhimurium) cells. The experiment in a line: Whole-cell ELISA of biotinylated PCC binding. To be noted: biotinylated PCC at 5 μM.
Protocol: as §1
[6] abbreviates: strain BAA 1705, PCC 5 μM or lower.

Entries after “also recorded” stand apart in the source; their conditions may differ. Where a SMILES comes first, the peptide text is derived from it. Bridges are numbered along the chain shown (N, C = ends). Triazole bridges read from a SMILES are 1,4-linked. [ ]: non-standard residue; d: D form. The star is where a group is joined. Biotin = O=C1N[C@H]2[C@H](CS[C@H]2CCCCC(=O)*)N1; Lys(N3) = [N-]=[N+]=NCCCC[C@H](N)C(=O)O; PEG5 = NCCOCCOCCOCCOCCOCCC(=O)O; Pra = C#CC[C@H](N)C(=O)O

T1 sequence (P12267 23-202): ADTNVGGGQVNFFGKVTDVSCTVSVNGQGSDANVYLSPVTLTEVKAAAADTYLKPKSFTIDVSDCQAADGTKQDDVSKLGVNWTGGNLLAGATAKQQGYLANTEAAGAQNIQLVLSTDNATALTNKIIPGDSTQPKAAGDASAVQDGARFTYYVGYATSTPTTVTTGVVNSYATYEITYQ

Consider `CC(C)C[C@@H]1NC(=O)[C@@H](NC(=O)CCOCCOCCOCCOCCOCCNC(=O)CCCC[C@@H]2SC[C@@H]3NC(=O)N[C@@H]32)Cc2cn(nn2)CCCC[C@@H](C(N)=O)NC(=O)[C@H](Cc2ccccc2)NC(=O)[C@H](Cc2ccccc2)NC(=O)[C@H](Cc2ccccc2)NC(=O)[C@H](CC(C)C)NC1=O` [cy(LLFFF)] ({Biotin-PEG5}-[Pra]LLFFF[Lys(N3)]-NH2; triazole 1-7; N-terminus and C-terminus assumed), for which the concentration for a half-maximal effect (EC50) in assay [1] was determined as 50 nM. Moreover, in assay [2] (MrkA/B/C knockout KPPR1), the “whole-cell ELISA signal, MrkA-knockout KPPR1” value is given as “ELISA intensities comparable to baseline”. The “whole-cell ELISA signal, K. pneumoniae BAA 1705 and BAA 2146” value in assay [2] (biotinylated PCC at 5 μM) is “high absorbance; also recorded: strong signal; also recorded: binds two strains of MrkA-expressing K. pneumoniae cells with excellent selectivity versus E. coli and S. typhimurium”. Besides, in assay [2] (strain BAA 1705, 50 μM PCC), the “whole-cell ELISA signal at high PCC concentration, LB or G-CAA” value was “strong and comparable ELISA signals”. In addition, in assay [2] (setting [6]), the “whole-cell ELISA 450 nm absorbance, cells cultured in G-CAA (high MrkA)” value is recorded as “strong absorbances” and the “whole-cell ELISA 450 nm absorbance, cells cultured in LB (low MrkA)” value is “near-baseline absorbances”. The “whole-cell ELISA signal, wild type KPPR1” value in assay [2] (wild type KPPR1 (ATCC 43816), G-CAA media, 5 μM down to 5 nM) was “strong signals; also recorded: binds wild type MrkA-expressing KPPR1 cells”. Moreover, in assay [3], the “whole-cell ELISA signal, E. coli” value is given as “small absorbances; also recorded: only weak signals”. Besides, the “binding to synthetic epitopes (SynEp selectivity)” value in assay [4] is listed as “preferably bind synthetic epitope 2; also recorded: highest signals from SynEp 2; also recorded: selectively binds synthetic epitope 2 versus other targeted epitopes”. Besides, in assay [5], the “whole-cell ELISA signal, S. typhimurium” value is “small absorbances; also recorded: only weak signals”.

For the origin of these results see patent US12209142B2, “SARS-CoV-2 epitope-targeted peptide immunostimulants” (Institute for Systems Biology, priority 2020, dated 2025).
